Consider six compounds from patent US20130261173A1, “CYCLODEXTRIN-BASED POLYMERS FOR THERAPEUTIC DELIVERY” (CERULEAN PHARMA INC., priority 2009, published 2013).

Broadly, the pIC50 is −log10 of the IC50, conventionally taken in molar units.

The nature of series [1]: Tolerability in the murine melanoma model (body weight). In kind it is in vivo, male C57BL/6 mice.
Protocol: The treatments were administered IV into the tail vein at a dose volume of 10 mL/kg, beginning on post-implantation day 5, when the mean tumor volume was ca. 60 mm^3. Animals were monitored for any morbidity and adverse effect three times a week. In addition, body weight and tumor volume were also measured three times a week.
Tolerability was determined by changes in body weight, expressed as a percent of the initial body weight on post-implantation day 5. Health monitoring was conducted three times a week to evaluate lethargy, tremors, hypothermia, ataxia, hind limb paralysis etc. The criteria at which a mouse was removed from the study were >20% body weight loss or severe morbidity or hind limb paralysis.
Series [2] has as its system B16.F10 cells. Description: CellTiter-Glo Luminescent Cell Viability Assay (cytotoxicity). In kind it is cell-based, murine. How it is done: To measure the cytotoxic effect of CDP-linker-docetaxel compounds, the CellTiter-Glo Luminescent Cell Viability Assay (CTG) was used. […] B16.F10 cells, grown to 85-90% confluency in 150 cm2 flasks (passage <30), were resuspended in media (MEM-alpha, 10% HI-FBS, 1×antibiotic-antimycotic solution) and added to 96-well opaque-clear bottom plates at a concentration of 1500 cells/well in 200 μL/well. The cells were incubated at 37° C. with 5% CO2 for 24 hours. The following day, serial dilutions of 2× concentrated particles and 2× concentrated free drug were made in 12-well reservoirs with media to specified concentrations. The media in the plates was replaced with […], of fresh media and 100 μL of the corresponding serially diluted drug. Three sets of plates were prepared with duplicate treatments. Following 24, 48 and 72 hours of incubation at 37° C. with 5% CO2, the media in the plates was replaced with 100 μL of fresh media and 100 μL of CTG solution, and then incubated for 5 minutes on a plate shaker at room temperature set to 450 rpm and allowed to rest for 15 minutes. Viable cells were measured by luminescence using a microtiter plate reader. The data was plotted as % viability vs. concentration and standardized to untreated cells.
(In general: In ATP-based viability assays light output follows the ATP content of the culture.)

Series [3] relates to B16.F10 cells. Nature of the series: Efficacy in a murine melanoma model (subcutaneous B16.F10 tumors). The format is in vivo, male C57BL/6 mice. The protocol: Animals were monitored for any morbidity and adverse effect three times a week.
Tumor volume was calculated with a (width×width×length)/2 mm^3 formula.

[4] abbreviates: 15 mg/kg IV, weekly schedule for 3 injections.
Where [5] appears, read: 30 mg/kg IV, weekly schedule for 3 injections (study of 1.4, 2.3, 4.2, 5.2).
Where [6] appears, read: 15 mg/kg IV, three injections over 2 weeks (twice per week).
Setting [7] is: 15 mg/kg IV, three injections over 2 weeks (twice per week), listed as free docetaxel.
[8] abbreviates: 30 mg/kg IV, biweekly schedule for 2 injections.
The mark [9] stands for this setting: 30 mg/kg IV, weekly schedule for 3 injections (study of 1.5).

pIC50: −log10 of the molar value. “And” between values parts separate entries of the source, which are not always exact repeats. Equal entries are not always repeated. Where two headings read alike, the source gives them in different places.

For “CDP-2′-aminoethoxyethoxy-Docetaxel [CDP-aminoethoxyethoxy-DTX formulation]”, the “Maximum body weight loss (%)” value worked out at 7% in series [1] (setting [4]) and 23% in series [1] (setting [5]).
On to `CC(=O)O[C@@]12CO[C@@H]1C[C@H](O)[C@@]1(C)C(=O)[C@H](O)C3=C(C)[C@@H](OC(=O)[C@H](O)[C@@H](NC(=O)OC(C)(C)C)c4ccccc4)C[C@@](O)([C@@H](OC(=O)c4ccccc4)[C@H]21)C3(C)C` [Free docetaxel, docetaxel, reference compound], for which, in the series with B16.F10 cells [2] (Mus musculus, B16.F10 cells, 72 hours after treatment), the pIC50 is 8.70 to 9.70. The “Tumor growth delay (TGD)” value in the series with B16.F10 cells [3] (setting [6]) worked out at 15 days; with B16.F10 cells [3] (setting [4]), 7 days; with B16.F10 cells [3] (setting [8]), 7 days; with B16.F10 cells [3] (setting [5]), 12 days; in the series with B16.F10 cells [3] (setting [9]), 21 days. The “Tumor growth inhibition (% TGI)” value in the series with B16.F10 cells [3] (setting [6]) came out at 97%; in the series on B16.F10 cells [3] (setting [7]), 97%; in the series on B16.F10 cells [3] (setting [4]) it was 68%; in the series on B16.F10 cells [3] (15 mg/kg IV, weekly schedule for 3 injections, listed as free docetaxel), 68%; in the series with B16.F10 cells [3] (setting [8]), 73%; with B16.F10 cells [3] (30 mg/kg IV, biweekly schedule for 2 injections, listed as free docetaxel), 73%. The “increase in TGD” value with B16.F10 cells [3] (setting [6]) is listed as 79%; in the series with B16.F10 cells [3] (setting [4]) it was 37%; in the series on B16.F10 cells [3] (setting [5]) it was 63%; in the series with B16.F10 cells [3] (setting [9]) it was 105%. Moreover, the “day the mean tumor volume endpoint (≧3000 mm^3) was reached” value in the series on B16.F10 cells [3] (setting [7]) is 34 days and 35 days; in the series on B16.F10 cells [3] (setting [4]) it was 26 days; in the series with B16.F10 cells [3] (setting [8]), 26 days; in the series on B16.F10 cells [3] (setting [5]), 31 days; in the series with B16.F10 cells [3] (setting [9]), 41 days. For the same compound, the survival in the series with B16.F10 cells [3] (15 mg/kg IV, three injections over 2 weeks, day 33) is 50%; with B16.F10 cells [3] (15 mg/kg IV, three injections over 2 weeks, day 40) it was 0%; in the series with B16.F10 cells [3] (30 mg/kg IV, biweekly for 2 injections, day 24), 50%; with B16.F10 cells [3] (30 mg/kg IV, biweekly for 2 injections, day 31) it was 0%; in the series with B16.F10 cells [3] (30 mg/kg IV, weekly for 3 injections (study of 1.4, 2.3, 5.2), day 29) it was 50%; in the series on B16.F10 cells [3] (30 mg/kg IV, weekly for 3 injections (study of 1.4, 2.3, 5.2), day 38), 0%. Further, the survival in the series with B16.F10 cells [3] (30 mg/kg IV, weekly for 3 injections (study of 1.5), day 40) worked out at 50%; in the series with B16.F10 cells [3] (30 mg/kg IV, weekly for 3 injections (study of 1.5), day 45), 0%. Moreover, the “Maximum body weight loss (%)” value amounted to 3% in series [1] (setting [6]); 0% in series [1] (setting [4]); 5% in series [1] (setting [8]); 8% in series [1] (setting [5]); 12% in series [1] (setting [9]).
On to “CDP-dithiolethyloxy-carbonate-docetaxel [CDP-ethane-S—S-ethane-DTX formulation]”, for which the pIC50 in the series with B16.F10 cells [2] was 7.64. Also, the “day the mean tumor volume endpoint (≧3000 mm^3) was reached” value in the series with B16.F10 cells [3] (mouse, in vivo) is 21 days and 24 days. The “Maximum body weight loss (%)” value in series [1] (setting [4]) and in series [1] (setting [5]) was 0% each time.
As to “CDP-2′-hexanoate-docetaxel [CDP-Hex-DTX formulation]”, the pIC50 with B16.F10 cells [2] was 6.36 to 6.49. Moreover, in the series with B16.F10 cells [3] (mouse, in vivo), the “Tumor growth delay (TGD)” value worked out at 10 days, the “Tumor growth inhibition (% TGI)” value amounted to 66% and the “increase in TGD” value worked out at 53%.
Regarding “CDP-2′-glycine-docetaxel [CDP-Gly-DTX formulation]”, in the series with B16.F10 cells [2] (B16.F10 cells, 72 hours after treatment), the negative-log IC50 (pIC50) is 8.43 to 8.92.
With “CDP-2′-alanine glycolate-docetaxel [CDP-Ala Gly-DTX formulation]”, in the series on B16.F10 cells [2], the pIC50 was 8.70 to 9.40.
